By ED50 is commonly meant the dose at which the effect has come halfway, by size or by number of responders.

Results on ten molecules are retold here after patent US3994974A, “α-Aminomethylbenzyl alcohol derivatives” (Yamanouchi Pharmaceutical Co., Ltd., priority 1972, dated 1976).

Values after ≈ are worked out from the molar mass of the structure shown. Counter-ions that a name gives are not always drawn. Like-named read-outs stand apart in the source and are kept apart here.

The subject of experiment [1] is isolated bronchial smooth muscle. Briefly: Activity on isolated bronchial smooth muscle (in vitro test), histamine dihydrochloride as spasmogen (Anti-histamine). Particulars: for EC50: Cavia porcellus, read-out: Anti-histamine ED50; for Anti-histamine relative activity: relative to control E (trimetoquinol) = 1.0, ED50 ratio, smaller = more potent. It counts as cell-based, guinea pig. The protocol: (§1) Activity on isolated bronchial smooth muscle (in vitro test)
(§2) The trachea of a guinea pig was cut spirally and the isolated bronchial preparation was suspended in Magnus bath. Tyrode's solution was filled in a 50 ml bath and kept at 37° C. Then, 10-^5 g/ml of histamine dihydrochloride or methacholine chloride was added to a bath as spasmogen. After the contraction of the trachea reached a plateau, a test substance shown in the below-showing table was added to the preparation, cumulatively. The concentration producing 50% relaxation of the contracted bronchial muscle was designated as ED50.

The test system is the same in experiment [2]. Briefly: Activity on isolated bronchial smooth muscle (in vitro test), methacholine chloride as spasmogen (Anti-methacholine Chloride). The format is cell-based, guinea pig. Particulars: for EC50: Cavia porcellus, read-out: Anti-methacholine Chloride ED50; for Anti-methacholine Chloride relative activity: relative to control E (trimetoquinol) = 1.0, ED50 ratio, smaller = more potent. The protocol: as §1, §2

Another experiment deals with Histamine-asthma. Briefly: Activity on experimental asthma (in vivo test), Histamine-asthma. Further details: species or system guinea pig. Particulars: Cavia porcellus, sc, read-out: Histamine-asthma ED50. The protocol:
(§3) Activity on experimental asthma (in vivo test)
(§4) A guinea pig was placed in a 11 liter glass chamber and exposed to the spasmogen by means of a nebulizer. […] Drugs were administered subcutaneously to animals 30 minutes before application of the spasmogen. […] ED50 was calculated by the method of Litchfield-Wilcoxon [J. Pharmacol. Exptl. Therap, 96, 99-113 (1949)].

In experiment [3] the test system is Methacholine chloride-asthma. Nature of the experiment: Activity on experimental asthma (in vivo test), Methacholine chloride-asthma. More on the design: species or system guinea pig. Particulars: Cavia porcellus, sc, read-out: Methacholine chloride-asthma Ed50. The protocol:
as §3, §4

The next experiment addresses T1, β1 (Canis lupus familiaris, UniProt P79148).
T1 construct: Mongrel dogs of either sex; from tissue; host or cells: heart of the living anesthetized mongrel dog (heart rate)
Nature of the experiment: β1-action: heart rate response (ΔHR) in anesthetized dogs. Particulars: intravenous. The format is in vivo, Mongrel dogs. The protocol: Mongrel dogs of either sex weighing about 10 Kg were anesthetized with pentobarbital Na, 30 mg/Kg intravenously. Arterial blood pressure was measured from a cannula in the right femoral artery and the pulse pressure used to trigger a ratemeter for a record of heart rate. (β1.action). Intravenous injections were made through a cannula in a femoral vein, and ED50bpm values were obtained from the does-response (ΔHR) curves. ED50bpm vs. ED50 ratios mean its own selectivity.

Another experiment deals with β1 /β2. Briefly: Selectivity (ratio of β1/β2), ED50bpm vs. ED50 in anesthetized dogs. The format is in vivo, Mongrel dogs.
Another experiment has as its target T2, β2 (Canis lupus familiaris, UniProt P54833).
T2 construct: Mongrel dogs of either sex; from tissue; host or cells: airways of the living anesthetized mongrel dog (bronchial resistance)
Nature of the experiment: β2-action: inhibition of histamine-induced increase in bronchial resistance in anesthetized dogs. The note with it: dog, intravenous, cumulative, 5 minutes before histamine 10 μg/Kg i.v. It counts as in vivo, Mongrel dogs.

The mark [4] stands for this setting: subcutaneous, 30 minutes before 0.01% histamine dihydrochloride spray, Litchfield-Wilcoxon.
[5] abbreviates: concentration producing 50% relaxation of contracted bronchial muscle, 10^-5 g/ml histamine dihydrochloride, guinea pig trachea, 37° C.
Setting [6] is: concentration producing 50% relaxation of contracted bronchial muscle, 10^-5 g/ml methacholine chloride, guinea pig trachea, 37° C.
The mark [7] stands for this setting: subcutaneous, 30 minutes before methacholine chloride spray, Litchfield-Wilcoxon.

T1 sequence (P79148 whole entry): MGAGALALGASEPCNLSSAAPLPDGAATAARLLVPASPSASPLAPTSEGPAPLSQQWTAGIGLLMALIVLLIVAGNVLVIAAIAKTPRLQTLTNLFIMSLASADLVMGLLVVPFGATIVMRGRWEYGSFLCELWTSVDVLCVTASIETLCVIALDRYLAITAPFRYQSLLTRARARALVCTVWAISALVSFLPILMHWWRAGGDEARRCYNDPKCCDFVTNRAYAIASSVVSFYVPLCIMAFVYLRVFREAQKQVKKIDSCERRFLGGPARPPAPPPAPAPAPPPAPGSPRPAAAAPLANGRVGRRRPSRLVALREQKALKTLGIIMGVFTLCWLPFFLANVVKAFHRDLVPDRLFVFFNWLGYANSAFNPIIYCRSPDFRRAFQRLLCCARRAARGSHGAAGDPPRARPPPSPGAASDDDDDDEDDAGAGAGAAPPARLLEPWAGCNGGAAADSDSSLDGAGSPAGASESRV
T2 sequence (P54833 whole entry): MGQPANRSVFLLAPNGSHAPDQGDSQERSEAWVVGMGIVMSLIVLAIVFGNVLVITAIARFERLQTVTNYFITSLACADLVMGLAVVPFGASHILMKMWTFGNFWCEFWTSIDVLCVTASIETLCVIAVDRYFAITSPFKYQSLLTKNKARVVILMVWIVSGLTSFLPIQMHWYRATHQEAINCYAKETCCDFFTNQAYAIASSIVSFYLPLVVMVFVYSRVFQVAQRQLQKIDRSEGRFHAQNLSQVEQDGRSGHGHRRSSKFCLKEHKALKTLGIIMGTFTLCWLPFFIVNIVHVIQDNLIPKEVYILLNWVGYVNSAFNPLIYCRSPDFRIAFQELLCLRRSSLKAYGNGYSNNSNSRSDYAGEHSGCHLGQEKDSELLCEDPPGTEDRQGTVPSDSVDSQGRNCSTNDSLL

As for `CC(Cc1ccc(O)cc1)NCC(O)c1ccc(O)c(NC=O)c1` (single isomer, unassigned) [Example 8, 3-formylamino-4-hydroxy-α-[N-(1-methyl-2-p-hydroxyphenylethyl)aminomethyl]benzyl alcohol [A] . 1/2 fumarate], in experiment [1], the EC50 was found to be 0.00094 µg/mL and the Anti-histamine relative activity came out at 0.35. Further, in experiment [2], the EC50 was determined as 0.011 µg/mL and the “Anti-methacholine Chloride relative activity” value stood at 0.52. Besides, the ED50 with Histamine-asthma (setting [4]) worked out at 1.9 µg/kg. The ED50 in experiment [3] was 2.6 µg/kg. Moreover, at β1, the “β1-action ED50bpm” value was 0.26 µg/kg. Moreover, in the experiment on β1 /β2, the “Selectivity (ratio of β1/β2)” value was 8.38.

Take `COc1ccc(CC(C)NCC(O)c2ccc(O)c(NC=O)c2)cc1` (single isomer, unassigned) [Example 22, 3-formylamino-4-hydroxy-α-[N-(1-methyl-2-p-methoxyphenylethyl)aminomethyl]benzyl alcohol [A] . 1/2 fumarate]: in experiment [1], the EC50 amounted to 0.00046 µg/mL and the Anti-histamine relative activity was 0.17. For the same molecule, in experiment [2], the EC50 stood at 0.0046 µg/mL and the “Anti-methacholine Chloride relative activity” value is listed as 0.22. Further, in the experiment with Histamine-asthma, the ED50 came out at 3.6 µg/kg. Further, on β1, the “β1-action ED50bpm” value stood at 0.72 µg/kg.

As to `CC(=O)Nc1cc(C(O)CNC(C)C)ccc1O.Cl` (stereo not drawn) [3-acetylamino-4-hydroxy-α-(isopropylaminomethyl)benzyl alcohol hydrochloride], the figures for the EC50 in experiment [1] (setting [5]) and in experiment [2] (setting [6]) were 1 µg/mL and over 100 µg/mL, respectively. Further, the Anti-histamine relative activity in experiment [1] is given as 370. Besides, the “Anti-methacholine Chloride relative activity” value in experiment [2] is over 4760.

For `CC(CCc1ccc(O)cc1)NCC(O)c1ccc(O)c(NC=O)c1` (stereo not drawn) [Example 19, 3-formylamino-4-hydroxy-α-[N-(1-methyl-3-p-hydroxyphenylpropyl)aminomethyl] benzyl alcohol . 1/2 fumarate . mono-hydrate], the EC50 in experiment [1] (setting [5]) came out at 0.00086 µg/mL; in experiment [2] (setting [6]) it was 0.0089 µg/mL. For the same molecule, the Anti-histamine relative activity in experiment [1] stood at 0.32. The “Anti-methacholine Chloride relative activity” value in experiment [2] is 0.42. The ED50 with Histamine-asthma (setting [4]) was 1.4 µg/kg; in experiment [3] (setting [7]) it was 8.1 µg/kg. In addition, the “β1-action ED50bpm” value at β1 was determined as 0.59 µg/kg. Further, the “Selectivity (ratio of β1/β2)” value in the experiment on β1 /β2 is given as 12.

On to `CC(C)NCC(O)c1ccc(O)c(N)c1` (stereo not drawn) [Known compound A, 3-amino-4-hydroxy-α-isopropylaminomethylbenzyl alcohol], for which, in experiment [1], the EC50 came out at 0.3 µg/mL (≈ 1.43 µM) and the Anti-histamine relative activity is listed as 111. For the same molecule, in experiment [2], the EC50 stood at 3 µg/mL (≈ 14.3 µM) and the “Anti-methacholine Chloride relative activity” value was 143.

With `CCOC(=O)Nc1cc(C(O)CNC(C)C)ccc1O` (stereo not drawn) [Known compound B, 3-ethoxycarbonylamino-4-hydroxy-α-isopropylaminomethylbenzyl alcohol], the results for the EC50 in experiment [1] (setting [5]) and in experiment [2] (setting [6]) were 5 µg/mL (≈ 17.7 µM) and over 100 µg/mL, respectively. Moreover, the Anti-histamine relative activity in experiment [1] came out at 185. In experiment [2], the “Anti-methacholine Chloride relative activity” value is listed as over 4760.

Regarding `CNC(=O)Nc1cc(C(O)CNC(C)C)ccc1O` (stereo not drawn) [Known compound C, 4-hydroxy-3-(N'-methylureido)-α-isopropylaminomethylbenzyl alcohol], the EC50 in experiment [1] (setting [5]) was 0.09 µg/mL (≈ 0.337 µM); in experiment [2] (setting [6]), over 100 µg/mL. Moreover, the Anti-histamine relative activity in experiment [1] amounted to 3.33. Further, in experiment [2], the “Anti-methacholine Chloride relative activity” value is given as over 4760.

As to `CC(C)(C)NCC(O)c1ccc(O)c(CO)c1` (stereo not drawn) [Known compound D, 4-hydroxy-3-hydroxymethyl-α-tert-butylaminomethylbenzyl alcohol], the EC50 in experiment [1] (setting [5]) was 0.01 µg/mL (≈ 0.0418 µM); in experiment [2] (setting [6]), 0.096 µg/mL (≈ 0.401 µM). For the same molecule, the Anti-histamine relative activity in experiment [1] was 3.7. The “Anti-methacholine Chloride relative activity” value in experiment [2] is 4.57. In addition, on β2, the ED50 is 1.4 µg/kg. Besides, on β1, the “β1-action ED50bpm” value worked out at 7.0 µg/kg. Further, in the experiment on β1 /β2, the “Selectivity (ratio of β1/β2)” value came out at 5.0.

On to `COc1cc(C[C@@H]2NCCc3cc(O)c(O)cc32)cc(OC)c1OC` [Known compound E, l-1-(3,4,5-trimethoxybenzyl)-6,7-dihydroxy 1,2,3,4-tetrahydroisoquinoline hydrochloride], for which the results for the EC50 in experiment [1] (setting [5]) and in experiment [2] (setting [6]) were 0.0027 µg/mL and 0.021 µg/mL, respectively. In experiment [1], the Anti-histamine relative activity is 1.0. In addition, in experiment [2], the “Anti-methacholine Chloride relative activity” value was 1.0. Further, the ED50 in the experiment with Histamine-asthma (setting [4]) was 11.3 µg/kg; in experiment [3] (setting [7]), 12.4 µg/kg.

As to `CC(C)NCC(O)c1ccc(O)c(O)c1` (stereo not drawn) [Known compound F, α-(isopropylaminomethyl) protocatechuyl alcohol], the EC50 in experiment [1] (setting [5]) was determined as 0.0055 µg/mL (≈ 0.026 µM); in experiment [2] (setting [6]) it was 0.028 µg/mL (≈ 0.133 µM). Moreover, the Anti-histamine relative activity in experiment [1] came to 2.04. Also, in experiment [2], the “Anti-methacholine Chloride relative activity” value came to 1.33. For the same molecule, the 50% effective dose (ED50) came to 15.7 µg/kg in the experiment on Histamine-asthma (setting [4]) and 11.2 µg/kg in experiment [3] (setting [7]).
